Test results: PubChem BioAssay (NCI)
In brackets after ≈: the same amount, converted by molar mass.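 Cells were grown in 96-well plates and exposed to each compound for 48 hours at five concentrations; endpoints were interpolated linearly between bracketing concentrations, or set to the highest concentration if not reached. GI50: concentration for 50% inhibition of growth. The concentration for full growth arrest is given as TGI.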

Key:
Assay in all cases: growth of human tumour cells (NCI), 48 h
[1] = tested on: T-47D breast
[2] = tested on: CCRF-CEM leukemia
[3] = tested on: HCT-116 colon
[4] = tested on: CAKI-1 renal
[5] = tested on: 786-0 renal
[6] = tested on: OVCAR-4 ovarian
[7] = tested on: SK-OV-3 ovarian
[8] = tested on: LOX IMVI melanoma
[9] = tested on: SN12C renal
[10] = tested on: RPMI-8226 leukemia
[11] = tested on: EKVX NSCLC
[12] = tested on: HL-60(TB) leukemia
[13] = tested on: SNB-75 CNS
[14] = tested on: M14 melanoma
[15] = tested on: SF-295 CNS
[16] = tested on: IGROV1 ovarian
[17] = tested on: K-562 leukemia
[18] = tested on: SK-MEL-28 melanoma
[19] = tested on: BT-549 breast
[20] = tested on: MDA-MB-231 breast
[21] = tested on: SW-620 colon
[22] = tested on: NCI/ADR-RES ovarian
[23] = tested on: SK-MEL-2 melanoma
[24] = tested on: UO-31 renal
[25] = tested on: NCI-H460 lung
[26] = tested on: SF-539 CNS
[27] = tested on: HCT-15 colon
[28] = tested on: TK-10 renal
[29] = tested on: MOLT-4 leukemia
[30] = tested on: HT29 colon
[31] = tested on: SNB-19 CNS
[32] = tested on: MALME-3M melanoma
[33] = tested on: ACHN renal
[34] = tested on: COLO 205 colon
[35] = tested on: HCC-2998 colon
[36] = tested on: UACC-62 melanoma
[37] = tested on: OVCAR-8 ovarian
[38] = tested on: U251 CNS
[39] = tested on: HOP-62 NSCLC
[40] = tested on: NCI-H522 lung
[41] = tested on: SF-268 CNS
[42] = tested on: NCI-H23 lung
[43] = tested on: MDA-N
[44] = tested on: PC-3 prostate
[45] = tested on: UACC-257 melanoma
[46] = tested on: KM12 colon
[47] = tested on: OVCAR-5 ovarian
[48] = tested on: A549 NSCLC
[49] = tested on: RXF 393 renal
[50] = tested on: DU-145 prostate
[51] = tested on: MCF7 breast
[52] = tested on: MDA-MB-435
[53] = tested on: NCI-H226 lung
[54] = tested on: A498 renal
[55] = tested on: HOP-92 NSCLC
[56] = tested on: SR leukemia
[57] = tested on: SK-MEL-5 melanoma
[58] = tested on: OVCAR-3 ovarian
[59] = tested on: HS 578T breast
[60] = tested on: DLD-1 colon
[61] = tested on: DMS 114 small cell lung
[62] = tested on: DMS 273 small cell lung
[63] = tested on: KM20L2 colon
[64] = tested on: LXFL 529 NSCLC
[65] = tested on: HOP-18 NSCLC
[66] = tested on: SNB-78 CNS
[67] = tested on: M19-MEL melanoma

Cc1cc(C)c(C2CNCc3cc4c(cc32)CNCC4c2c(C)cc(C)cc2C)c(C)c1 (stereo unspecified)
GI50 [1]: 2.68 mg/L (≈ 6.31 µM)
TGI [1]: 7.65 mg/L
GI50 [2]: 1.86 mg/L (≈ 4.38 µM)
TGI [2]: 5.07 mg/L
GI50 [3]: 2.38 mg/L (≈ 5.59 µM)
TGI [3]: 6.14 mg/L
GI50 [4]: 4.22 mg/L (≈ 9.94 µM)
TGI [4]: 13.6 mg/L
GI50 [5]: 2.34 mg/L (≈ 5.5 µM)
TGI [5]: 5.26 mg/L
GI50 [6]: 2.48 mg/L (≈ 5.83 µM)
TGI [6]: 6.43 mg/L
GI50 [7]: 10.2 mg/L (≈ 23.9 µM)
TGI [7]: 21.8 mg/L
GI50 [8]: 1.85 mg/L (≈ 4.37 µM)
TGI [8]: 4.31 mg/L
GI50 [9]: 2.59 mg/L (≈ 6.1 µM)
TGI [9]: 9.63 mg/L
GI50 [10]: 2.25 mg/L (≈ 5.3 µM)
TGI [10]: 6.92 mg/L
GI50 [11]: 5.97 mg/L (≈ 14.1 µM)
TGI [11]: 17.2 mg/L
GI50 [12]: 1.81 mg/L (≈ 4.27 µM)
TGI [12]: 4.3 mg/L
GI50 [13]: 0.526 mg/L (≈ 1.24 µM)
TGI [13]: 1.92 mg/L
GI50 [14]: 1.83 mg/L (≈ 4.32 µM)
TGI [14]: 3.28 mg/L
GI50 [15]: 3.44 mg/L (≈ 8.09 µM)
TGI [15]: 13.1 mg/L
GI50 [16]: 4.68 mg/L (≈ 11 µM)
TGI [16]: 18 mg/L
GI50 [17]: 1.1 mg/L (≈ 2.58 µM)
TGI [17]: 3.22 mg/L
GI50 [18]: 1.83 mg/L (≈ 4.31 µM)
TGI [18]: 3.47 mg/L
GI50 [19]: 4.39 mg/L (≈ 10.3 µM)
TGI [19]: 15.9 mg/L
GI50 [20]: 2.42 mg/L (≈ 5.69 µM)
TGI [20]: 11.4 mg/L
GI50 [21]: 3.11 mg/L (≈ 7.31 µM)
TGI [21]: 11.5 mg/L
GI50 [22]: 6.38 mg/L (≈ 15 µM)
TGI [22]: 19.5 mg/L
GI50 [23]: 2.92 mg/L (≈ 6.89 µM)
TGI [23]: 7.4 mg/L
GI50 [24]: 2.04 mg/L (≈ 4.8 µM)
TGI [24]: 5.56 mg/L
GI50 [25]: 2.53 mg/L (≈ 5.96 µM)
TGI [25]: 6.91 mg/L
GI50 [26]: 2.23 mg/L (≈ 5.25 µM)
TGI [26]: 3.85 mg/L
GI50 [27]: 4.13 mg/L (≈ 9.72 µM)
TGI [27]: 14.2 mg/L
GI50 [28]: 3.22 mg/L (≈ 7.59 µM)
TGI [28]: 26.9 mg/L
GI50 [29]: 2.95 mg/L (≈ 6.95 µM)
TGI [29]: 8.55 mg/L
GI50 [30]: 2.75 mg/L (≈ 6.49 µM)
TGI [30]: 8.35 mg/L
GI50 [31]: 3.46 mg/L (≈ 8.15 µM)
TGI [31]: 11 mg/L
GI50 [32]: 3.05 mg/L (≈ 7.17 µM)
TGI [32]: 7.45 mg/L
GI50 [33]: 3.76 mg/L (≈ 8.86 µM)
TGI [33]: 13.4 mg/L
GI50 [34]: 2.63 mg/L (≈ 6.2 µM)
TGI [34]: 7.49 mg/L
GI50 [35]: 1.82 mg/L (≈ 4.3 µM)
TGI [35]: 3.85 mg/L
GI50 [36]: 6.7 mg/L (≈ 15.8 µM)
TGI [36]: 15.4 mg/L
GI50 [37]: 2 mg/L (≈ 4.71 µM)
TGI [37]: 4.18 mg/L
GI50 [38]: 2.54 mg/L (≈ 5.98 µM)
TGI [38]: 5.59 mg/L
GI50 [39]: 8.62 mg/L (≈ 20.3 µM)
TGI [39]: 22.3 mg/L
GI50 [40]: 3.23 mg/L (≈ 7.6 µM)
TGI [40]: 9.18 mg/L
GI50 [41]: 3.17 mg/L (≈ 7.47 µM)
TGI [41]: 9.96 mg/L
GI50 [42]: 15.9 mg/L (≈ 37.4 µM)
TGI [42]: 30.4 mg/L
GI50 [43]: 2.05 mg/L (≈ 4.83 µM)
TGI [43]: 4.3 mg/L
GI50 [44]: 5.67 mg/L (≈ 13.3 µM)
TGI [44]: 15.6 mg/L
GI50 [45]: 1.83 mg/L (≈ 4.3 µM)
TGI [45]: 4.27 mg/L
GI50 [46]: 2.6 mg/L (≈ 6.13 µM)
TGI [46]: 6.74 mg/L
GI50 [47]: 8.38 mg/L (≈ 19.7 µM)
TGI [47]: 20.4 mg/L
GI50 [48]: 4.53 mg/L (≈ 10.7 µM)
TGI [48]: 15.8 mg/L
GI50 [49]: 2.2 mg/L (≈ 5.18 µM)
TGI [49]: 4.45 mg/L
GI50 [50]: 7.21 mg/L (≈ 17 µM)
TGI [50]: 19.8 mg/L
GI50 [51]: 5.42 mg/L (≈ 12.8 µM)
TGI [51]: 20.1 mg/L
GI50 [52]: 1.88 mg/L (≈ 4.44 µM)
TGI [52]: 3.84 mg/L
GI50 [53]: 13.4 mg/L (≈ 31.6 µM)
TGI [53]: 26.5 mg/L
GI50 [54]: 2.06 mg/L (≈ 4.84 µM)
TGI [54]: 4.48 mg/L
GI50 [55]: 11.8 mg/L (≈ 27.8 µM)
TGI [55]: 24.9 mg/L
GI50 [56]: 0.303 mg/L (≈ 0.713 µM)
TGI [56]: 1 mg/L
GI50 [57]: 2 mg/L (≈ 4.71 µM)
TGI [57]: 3.96 mg/L
GI50 [58]: 1.91 mg/L (≈ 4.5 µM)
TGI [58]: 4.27 mg/L
GI50 [59]: 3.43 mg/L (≈ 8.07 µM)
TGI [59]: 13.5 mg/L

CC(C)(C)NC(=O)CCC1C(C(=O)NC(C)(C)C)C2(Cl)C(Cl)=C(Cl)C1(Cl)C2(Cl)Cl (stereo unspecified)
TGI [1]: > 100 µM
TGI [2]: > 100 µM
TGI [3]: > 100 µM
TGI [5]: > 100 µM
TGI [6]: > 100 µM
TGI [7]: > 100 µM
TGI [8]: > 100 µM
TGI [9]: > 100 µM
TGI [10]: > 100 µM
TGI [11]: > 100 µM
TGI [12]: > 100 µM
TGI [13]: > 100 µM
TGI [14]: > 100 µM
TGI [15]: > 100 µM
TGI [16]: > 100 µM
TGI [17]: > 100 µM
TGI [18]: > 100 µM
TGI [19]: > 100 µM
TGI [20]: > 100 µM
TGI [21]: > 100 µM
TGI [22]: > 100 µM
TGI [23]: > 100 µM
TGI [24]: > 100 µM
TGI [25]: > 100 µM
TGI [26]: > 100 µM
TGI [27]: > 100 µM
TGI [28]: > 100 µM
TGI [29]: > 100 µM
TGI [30]: > 100 µM
TGI [31]: > 100 µM
TGI [32]: > 100 µM
TGI [33]: > 100 µM
TGI [34]: > 100 µM
TGI [35]: > 100 µM
TGI [36]: > 100 µM
TGI [37]: > 100 µM
TGI [38]: > 100 µM
TGI [39]: > 100 µM
TGI [40]: > 100 µM
TGI [41]: > 100 µM
TGI [42]: > 100 µM
TGI [43]: > 100 µM
TGI [44]: > 100 µM
TGI [45]: > 100 µM
TGI [46]: > 100 µM
TGI [47]: > 100 µM
TGI [48]: > 100 µM
TGI [49]: > 100 µM
TGI [50]: > 100 µM
TGI [51]: > 100 µM
TGI [52]: > 100 µM
TGI [53]: > 100 µM
TGI [54]: > 100 µM
TGI [56]: > 100 µM
TGI [57]: > 100 µM
TGI [58]: > 100 µM
TGI [59]: > 100 µM

CCOc1ccc(NC(=O)CCc2nnc(SC)o2)cc1
TGI [2]: > 100 µM
TGI [3]: > 100 µM
TGI [4]: > 100 µM
TGI [5]: > 100 µM
TGI [6]: > 100 µM
TGI [7]: > 100 µM
TGI [8]: > 100 µM
TGI [9]: > 100 µM
TGI [11]: > 100 µM
TGI [12]: > 100 µM
TGI [13]: > 100 µM
TGI [14]: > 100 µM
TGI [15]: > 100 µM
TGI [16]: > 100 µM
TGI [17]: > 100 µM
TGI [18]: > 100 µM
TGI [21]: > 100 µM
TGI [23]: > 100 µM
TGI [60]: > 100 µM
TGI [24]: > 100 µM
TGI [61]: > 100 µM
TGI [25]: > 100 µM
TGI [26]: > 100 µM
TGI [27]: > 100 µM
TGI [28]: > 100 µM
TGI [29]: > 100 µM
TGI [30]: > 100 µM
TGI [31]: > 100 µM
TGI [62]: > 100 µM
TGI [32]: > 100 µM
TGI [63]: > 100 µM
TGI [33]: > 100 µM
TGI [34]: > 100 µM
TGI [35]: > 100 µM
TGI [36]: > 100 µM
TGI [64]: > 100 µM
TGI [37]: > 100 µM
TGI [38]: > 100 µM
TGI [39]: > 100 µM
TGI [40]: > 100 µM
TGI [41]: > 100 µM
TGI [42]: > 100 µM
TGI [65]: > 100 µM
TGI [45]: > 100 µM
TGI [46]: > 100 µM
TGI [47]: > 100 µM
TGI [48]: > 100 µM
TGI [49]: > 100 µM
TGI [53]: > 100 µM
TGI [66]: > 100 µM
TGI [54]: > 100 µM
TGI [55]: > 100 µM
TGI [56]: > 100 µM
TGI [57]: > 100 µM
TGI [67]: > 100 µM
TGI [58]: > 100 µM
